In ChEMBL document CHEMBL1201862, “PubChem BioAssay data set” (2004):
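A five-concentration, 48-hour dose response in 96-well plates underlies each endpoint, interpolated linearly between surrounding concentrations. Abbreviation: GI50, concentration required for 50% inhibition of growth.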 Active and inactive are the calls of the source. Rule as the data show it: active = GI50 up to about 1.1 µM and inactive = higher.

Experiments:
Assay in all cases: growth of human tumour cells (NCI), 48 h
SF-268 = system: SF-268
KM12 = system: KM12
SR = system: SR
IGROV-1 = system: IGROV-1
LOX IMVI = system: LOX IMVI
COLO 205 = system: COLO 205
786-0 = system: 786-0
SN12C = system: SN12C
OVCAR-5 = system: OVCAR-5
HOP-62 = system: HOP-62
SF-539 = system: SF-539
HCT-116 = system: HCT-116
RPMI-8226 = system: RPMI-8226
HT-29 = system: HT-29
TK-10 = system: TK-10
NCI-H460 = system: NCI-H460
M14 = system: M14

Measured: GI50

CCOC(=O)C1S/C(=N\c2cccc(Cl)c2C)N=C1C (stereo not given)
inactive: SF-268 30.5 µM | KM12 27 µM | SR 24.7 µM | IGROV-1 31.3 µM | LOX IMVI 18.1 µM | COLO 205 21.4 µM | 786-0 16.1 µM | SN12C 18.8 µM | OVCAR-5 18.7 µM | HOP-62 80 µM | SF-539 25.6 µM | HCT-116 22.8 µM | RPMI-8226 22 µM | HT-29 17 µM | TK-10 35.6 µM | NCI-H460 33 µM

CCc1nnc(S)n1/N=C/c1ccc(-c2ccc([N+](=O)[O-])cc2)o1
inactive: SF-268 > 100 µM | M14 > 100 µM | KM12 > 100 µM | SR > 100 µM | IGROV-1 > 100 µM | LOX IMVI > 100 µM | COLO 205 > 100 µM | 786-0 > 100 µM | SN12C > 100 µM | OVCAR-5 > 100 µM | HOP-62 > 100 µM | SF-539 > 100 µM | HCT-116 > 100 µM | RPMI-8226 > 100 µM | HT-29 > 100 µM | TK-10 > 100 µM | NCI-H460 > 100 µM

COc1ccc(/C(=N\NC(=S)NN)C(c2ccc(OC)cc2)C2C(=O)Oc3ccccc32)cc1 (stereo not given)
inactive: SF-268 > 10 µM | M14 > 10 µM | KM12 > 10 µM | SR 80.7 µM | IGROV-1 > 10 µM | LOX IMVI > 10 µM | COLO 205 > 10 µM | 786-0 > 10 µM | SN12C > 10 µM | OVCAR-5 > 10 µM | HOP-62 > 10 µM | SF-539 > 10 µM | HCT-116 > 10 µM | RPMI-8226 > 10 µM | HT-29 > 10 µM | TK-10 > 10 µM | NCI-H460 > 10 µM

CC(C)C(/N=C1\CC2CCC1(C(=O)Nc1ccccc1O)C2(C)C)c1ccccc1 (stereo not given)
inactive: SF-268 > 10 µM | M14 > 10 µM | KM12 > 10 µM | SR > 10 µM | IGROV-1 > 10 µM | LOX IMVI > 10 µM | COLO 205 > 10 µM | 786-0 > 10 µM | SN12C > 10 µM | OVCAR-5 > 10 µM | HOP-62 > 10 µM | SF-539 > 10 µM | HCT-116 6.61 µM | RPMI-8226 5.11 µM | HT-29 9.75 µM | TK-10 > 10 µM | NCI-H460 7.67 µM

O=c1nc(NC(c2ccccc2)(c2ccccc2)c2ccccc2)ccn1CCCl
inactive: SF-268 17.2 µM | KM12 17.1 µM | SR 20.3 µM | IGROV-1 19.3 µM | LOX IMVI 17.1 µM | COLO 205 25.6 µM | 786-0 18.1 µM | SN12C 17.9 µM | OVCAR-5 27.5 µM | HOP-62 21.5 µM | SF-539 17.8 µM | HCT-116 18.8 µM | RPMI-8226 17.1 µM | HT-29 17 µM | TK-10 27.7 µM | NCI-H460 19.3 µM

COC12CCC(C(C(=O)c3ccccc3)=C1C(=O)c1ccccc1)C(O)C2 (stereo not given)
inactive: SF-268 > 100 µM | M14 > 100 µM | KM12 > 100 µM | SR > 100 µM | IGROV-1 > 100 µM | COLO 205 > 100 µM | 786-0 > 100 µM | SN12C > 100 µM | HOP-62 > 100 µM | SF-539 > 100 µM | HCT-116 > 100 µM | RPMI-8226 > 100 µM | HT-29 > 100 µM | TK-10 > 100 µM

COC1=CC(=O)C2C(C1=O)[C@@H]1c3ccccc3C[C@H]21 (stereo not given in full)
inactive: SF-268 > 100 µM | M14 > 100 µM | KM12 > 100 µM | SR > 100 µM | IGROV-1 > 100 µM | LOX IMVI > 100 µM | COLO 205 > 100 µM | 786-0 > 100 µM | OVCAR-5 > 100 µM | HOP-62 > 100 µM | SF-539 > 100 µM | RPMI-8226 > 100 µM | HT-29 > 100 µM | TK-10 > 100 µM | NCI-H460 > 100 µM

O=c1cc(-c2ccccc2)oc2cc(OCC(O)COc3ccc4c(=O)cc(-c5ccccc5)oc4c3)ccc12
inactive: SF-268 14.6 µM | M14 > 100 µM | KM12 > 100 µM | IGROV-1 > 100 µM | LOX IMVI 25.3 µM | 786-0 17.4 µM | OVCAR-5 > 100 µM | HOP-62 8.43 µM | SF-539 22.4 µM | HCT-116 42.5 µM | RPMI-8226 > 100 µM | HT-29 > 100 µM | TK-10 42.4 µM | NCI-H460 40.3 µM

CCCCSC1CCSc2c1ccc1ccccc21 (stereo not given)
inactive: M14 74.1 µM | KM12 > 100 µM | SR 72.3 µM | IGROV-1 > 100 µM | COLO 205 > 100 µM | 786-0 > 100 µM | OVCAR-5 42 µM | HOP-62 > 100 µM | SF-539 > 100 µM | HCT-116 53 µM | RPMI-8226 > 100 µM | HT-29 71.6 µM | TK-10 > 100 µM

CC12CCC(=O)N1c1cc([N+](=O)[O-])ccc1N2 (stereo not given)
inactive: SF-268 > 100 µM | M14 > 100 µM | KM12 > 100 µM | SR 76 µM | IGROV-1 > 100 µM | LOX IMVI > 100 µM | COLO 205 > 100 µM | 786-0 > 100 µM | SN12C > 100 µM | HOP-62 > 100 µM | SF-539 > 100 µM | HCT-116 > 100 µM | RPMI-8226 > 100 µM | HT-29 > 100 µM

COC(=O)C1=C(C(=O)OC)C2(C)Nc3ccccc3C2=C(c2ccccc2)C1 (stereo not given)
inactive: SF-268 19.1 µM | M14 17 µM | KM12 13.5 µM | IGROV-1 22.1 µM | LOX IMVI 25.7 µM | COLO 205 19.2 µM | 786-0 22.5 µM | SN12C 23.7 µM | OVCAR-5 24.5 µM | HOP-62 22.4 µM | SF-539 17.1 µM | HCT-116 19 µM | RPMI-8226 10.4 µM | HT-29 27.7 µM | TK-10 26.6 µM | NCI-H460 19.4 µM

CCN(CC)c1cccc2c1/C(=N/O)CCCC2
inactive: SF-268 > 100 µM | KM12 > 100 µM | SR > 100 µM | LOX IMVI > 100 µM | COLO 205 > 100 µM | 786-0 > 100 µM | SN12C > 100 µM | HOP-62 > 100 µM | HCT-116 92.3 µM | RPMI-8226 56.2 µM | HT-29 97.1 µM | TK-10 > 100 µM | NCI-H460 74.5 µM

NNC(=O)CNC(=O)c1ccc(Cl)cc1Cl
inactive: SF-268 > 100 µM | M14 > 100 µM | KM12 > 100 µM | IGROV-1 > 100 µM | COLO 205 > 100 µM | 786-0 39.8 µM | SN12C > 100 µM | OVCAR-5 > 100 µM | HOP-62 > 100 µM | SF-539 > 100 µM | HCT-116 39.4 µM | RPMI-8226 > 100 µM | HT-29 80.4 µM | TK-10 > 100 µM | NCI-H460 > 100 µM

NC(=O)C(N)=O
inactive: SF-268 > 100 µM | M14 > 100 µM | KM12 > 100 µM | SR > 100 µM | LOX IMVI > 100 µM | COLO 205 > 100 µM | 786-0 > 100 µM | SN12C > 100 µM | OVCAR-5 > 100 µM | HOP-62 > 100 µM | SF-539 > 100 µM | HCT-116 > 100 µM | RPMI-8226 > 100 µM | TK-10 > 100 µM | NCI-H460 > 100 µM

O=C(OC1CC(n2cc(F)c(=O)[nH]c2=O)OC1CSC(=O)c1ccccc1)c1ccccc1 (stereo not given)
inactive: SF-268 25.4 µM | M14 28.1 µM | KM12 27.4 µM | IGROV-1 56.2 µM | LOX IMVI 50.9 µM | COLO 205 29.6 µM | 786-0 32.1 µM | SN12C 28.1 µM | OVCAR-5 61.8 µM | HOP-62 51.3 µM | SF-539 36.5 µM | HCT-116 34.8 µM | RPMI-8226 22.5 µM | HT-29 17.8 µM | TK-10 > 100 µM | NCI-H460 35.3 µM

CCCCN(CCCC)C(=O)C(=O)CC(=O)c1ccc(Br)cc1
inactive: SF-268 > 100 µM | M14 > 100 µM | KM12 > 100 µM | IGROV-1 > 100 µM | LOX IMVI > 100 µM | COLO 205 > 100 µM | 786-0 > 100 µM | SN12C > 100 µM | OVCAR-5 > 100 µM | HOP-62 > 100 µM | SF-539 > 100 µM | HCT-116 > 100 µM | RPMI-8226 > 100 µM | HT-29 > 100 µM | TK-10 > 100 µM | NCI-H460 > 100 µM

N#C/C(=C\c1cc(O)cc(O)c1)C(N)=O
inactive: SF-268 > 100 µM | M14 > 100 µM | KM12 80.5 µM | IGROV-1 > 100 µM | COLO 205 > 100 µM | 786-0 > 100 µM | SN12C > 100 µM | OVCAR-5 > 100 µM | HOP-62 > 100 µM | SF-539 > 100 µM | HCT-116 > 100 µM | RPMI-8226 > 100 µM | HT-29 > 100 µM | TK-10 > 100 µM | NCI-H460 > 100 µM

O=C(NCCCl)SCCO
inactive: SF-268 > 100 µM | M14 > 100 µM | KM12 > 100 µM | SR > 100 µM | IGROV-1 > 100 µM | COLO 205 > 100 µM | 786-0 > 100 µM | SN12C > 100 µM | OVCAR-5 > 100 µM | HOP-62 > 100 µM | SF-539 > 100 µM | HCT-116 > 100 µM | RPMI-8226 > 100 µM | HT-29 > 100 µM | TK-10 > 100 µM | NCI-H460 > 100 µM
